Assay results from PubChem BioAssay (NCI).
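Five concentrations, 48 hours, 96-well plates. TGI denotes the concentration required for complete inhibition of growth.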

Tests used:
Test in all cases: NCI-60 cell line screen, 48 h
786-0 renal = test system: 786-0 renal
A498 renal = test system: A498 renal
A549 NSCLC = test system: A549 NSCLC
ACHN renal = test system: ACHN renal
BT-549 breast = test system: BT-549 breast
CAKI-1 renal = test system: CAKI-1 renal
CCRF-CEM leukemia = test system: CCRF-CEM leukemia
COLO 205 colon = test system: COLO 205 colon
DU-145 prostate = test system: DU-145 prostate
EKVX NSCLC = test system: EKVX NSCLC
HCC-2998 colon = test system: HCC-2998 colon
HCT-116 colon = test system: HCT-116 colon
HCT-15 colon = test system: HCT-15 colon
HL-60(TB) leukemia = test system: HL-60(TB) leukemia
HOP-62 NSCLC = test system: HOP-62 NSCLC
HOP-92 NSCLC = test system: HOP-92 NSCLC
HS 578T breast = test system: HS 578T breast
HT29 colon = test system: HT29 colon
IGROV1 ovarian = test system: IGROV1 ovarian
K-562 leukemia = test system: K-562 leukemia
KM12 colon = test system: KM12 colon
LOX IMVI melanoma = test system: LOX IMVI melanoma
M14 melanoma = test system: M14 melanoma
MALME-3M melanoma = test system: MALME-3M melanoma
MCF7 breast = test system: MCF7 breast
MDA-MB-231 breast = test system: MDA-MB-231 breast
MDA-MB-435 = test system: MDA-MB-435
MDA-N = test system: MDA-N
MOLT-4 leukemia = test system: MOLT-4 leukemia
NCI-H226 lung = test system: NCI-H226 lung
NCI-H23 lung = test system: NCI-H23 lung
NCI-H460 lung = test system: NCI-H460 lung
NCI-H522 lung = test system: NCI-H522 lung
NCI/ADR-RES ovarian = test system: NCI/ADR-RES ovarian
OVCAR-3 ovarian = test system: OVCAR-3 ovarian
OVCAR-4 ovarian = test system: OVCAR-4 ovarian
OVCAR-5 ovarian = test system: OVCAR-5 ovarian
OVCAR-8 ovarian = test system: OVCAR-8 ovarian
PC-3 prostate = test system: PC-3 prostate
RPMI-8226 leukemia = test system: RPMI-8226 leukemia
RXF 393 renal = test system: RXF 393 renal
SF-268 CNS = test system: SF-268 CNS
SF-295 CNS = test system: SF-295 CNS
SF-539 CNS = test system: SF-539 CNS
SK-MEL-2 melanoma = test system: SK-MEL-2 melanoma
SK-MEL-28 melanoma = test system: SK-MEL-28 melanoma
SK-MEL-5 melanoma = test system: SK-MEL-5 melanoma
SK-OV-3 ovarian = test system: SK-OV-3 ovarian
SN12C renal = test system: SN12C renal
SNB-19 CNS = test system: SNB-19 CNS
SNB-75 CNS = test system: SNB-75 CNS
SR leukemia = test system: SR leukemia
SW-620 colon = test system: SW-620 colon
T-47D breast = test system: T-47D breast
TK-10 renal = test system: TK-10 renal
U251 CNS = test system: U251 CNS
UACC-257 melanoma = test system: UACC-257 melanoma
UACC-62 melanoma = test system: UACC-62 melanoma
UO-31 renal = test system: UO-31 renal
DLD-1 colon = test system: DLD-1 colon
DMS 114 small cell lung = test system: DMS 114 small cell lung
DMS 273 small cell lung = test system: DMS 273 small cell lung
HOP-18 NSCLC = test system: HOP-18 NSCLC
KM20L2 colon = test system: KM20L2 colon
LXFL 529 NSCLC = test system: LXFL 529 NSCLC
M19-MEL melanoma = test system: M19-MEL melanoma
SNB-78 CNS = test system: SNB-78 CNS

## COc1c2c(cc3c1C(O)N1CC[C@]34[C@H]3O[C@H]3[C@H](OC)C[C@@H]14)OCO2 (stereo partly specified)
786-0 renal
  TGI: > 100 µM
A498 renal
  TGI: > 100 µM
A549 NSCLC
  TGI: > 100 µM
ACHN renal
  TGI: > 100 µM
BT-549 breast
  TGI: > 100 µM
CAKI-1 renal
  TGI: > 100 µM
CCRF-CEM leukemia
  TGI: 14.2 µM
COLO 205 colon
  TGI: > 100 µM
DU-145 prostate
  TGI: > 100 µM
EKVX NSCLC
  TGI: > 100 µM
HCC-2998 colon
  TGI: > 100 µM
HCT-116 colon
  TGI: > 100 µM
HCT-15 colon
  TGI: > 100 µM
HL-60(TB) leukemia
  TGI: 3.53 µM
HOP-62 NSCLC
  TGI: > 100 µM
HOP-92 NSCLC
  TGI: > 100 µM
HS 578T breast
  TGI: > 100 µM
HT29 colon
  TGI: > 100 µM
IGROV1 ovarian
  TGI: > 100 µM
K-562 leukemia
  TGI: > 100 µM
KM12 colon
  TGI: > 100 µM
LOX IMVI melanoma
  TGI: > 100 µM
M14 melanoma
  TGI: > 100 µM
MALME-3M melanoma
  TGI: > 100 µM
MCF7 breast
  TGI: > 100 µM
MDA-MB-231 breast
  TGI: > 100 µM
MDA-MB-435
  TGI: > 100 µM
MDA-N
  TGI: 67.8 µM
MOLT-4 leukemia
  TGI: > 100 µM
NCI-H226 lung
  TGI: > 100 µM
NCI-H23 lung
  TGI: > 100 µM
NCI-H460 lung
  TGI: > 100 µM
NCI-H522 lung
  TGI: 96.7 µM
NCI/ADR-RES ovarian
  TGI: > 100 µM
OVCAR-3 ovarian
  TGI: 38.4 µM
OVCAR-4 ovarian
  TGI: > 100 µM
OVCAR-5 ovarian
  TGI: > 100 µM
OVCAR-8 ovarian
  TGI: > 100 µM
PC-3 prostate
  TGI: > 100 µM
RPMI-8226 leukemia
  TGI: > 100 µM
RXF 393 renal
  TGI: > 100 µM
SF-268 CNS
  TGI: > 100 µM
SF-295 CNS
  TGI: 71.7 µM
SF-539 CNS
  TGI: > 100 µM
SK-MEL-2 melanoma
  TGI: 83.8 µM
SK-MEL-28 melanoma
  TGI: > 100 µM
SK-MEL-5 melanoma
  TGI: > 100 µM
SK-OV-3 ovarian
  TGI: 97.1 µM
SN12C renal
  TGI: > 100 µM
SNB-19 CNS
  TGI: > 100 µM
SNB-75 CNS
  TGI: > 100 µM
SR leukemia
  TGI: 88.6 µM
SW-620 colon
  TGI: > 100 µM
T-47D breast
  TGI: > 100 µM
TK-10 renal
  TGI: > 100 µM
U251 CNS
  TGI: > 100 µM
UACC-257 melanoma
  TGI: > 100 µM
UACC-62 melanoma
  TGI: > 100 µM
UO-31 renal
  TGI: > 100 µM

## CCC(C)OC(=O)C1C2CCC(O2)C1C(=O)O (stereo unspecified)
786-0 renal
  TGI: > 62.7 µM
A498 renal
  TGI: > 100 µM
A549 NSCLC
  TGI: > 100 µM
ACHN renal
  TGI: > 100 µM
CAKI-1 renal
  TGI: > 100 µM
CCRF-CEM leukemia
  TGI: > 100 µM
COLO 205 colon
  TGI: > 60.1 µM
DLD-1 colon
  TGI: > 77.7 µM
DMS 114 small cell lung
  TGI: > 56.4 µM
DMS 273 small cell lung
  TGI: > 60.1 µM
EKVX NSCLC
  TGI: > 100 µM
HCC-2998 colon
  TGI: > 100 µM
HCT-116 colon
  TGI: > 56.3 µM
HCT-15 colon
  TGI: > 56 µM
HL-60(TB) leukemia
  TGI: > 100 µM
HOP-18 NSCLC
  TGI: > 100 µM
HOP-62 NSCLC
  TGI: > 100 µM
HOP-92 NSCLC
  TGI: > 100 µM
HT29 colon
  TGI: > 66.2 µM
IGROV1 ovarian
  TGI: > 100 µM
K-562 leukemia
  TGI: > 100 µM
KM12 colon
  TGI: > 100 µM
KM20L2 colon
  TGI: > 63.5 µM
LOX IMVI melanoma
  TGI: > 58.3 µM
LXFL 529 NSCLC
  TGI: > 100 µM
M14 melanoma
  TGI: > 100 µM
M19-MEL melanoma
  TGI: > 100 µM
MALME-3M melanoma
  TGI: > 100 µM
MOLT-4 leukemia
  TGI: > 100 µM
NCI-H226 lung
  TGI: > 100 µM
NCI-H23 lung
  TGI: > 100 µM
NCI-H460 lung
  TGI: > 55.4 µM
NCI-H522 lung
  TGI: > 100 µM
OVCAR-3 ovarian
  TGI: > 100 µM
OVCAR-4 ovarian
  TGI: > 100 µM
OVCAR-5 ovarian
  TGI: > 100 µM
OVCAR-8 ovarian
  TGI: > 100 µM
RPMI-8226 leukemia
  TGI: > 68.7 µM
RXF 393 renal
  TGI: > 56.2 µM
SF-268 CNS
  TGI: > 80.8 µM
SF-295 CNS
  TGI: > 100 µM
SF-539 CNS
  TGI: > 100 µM
SK-MEL-2 melanoma
  TGI: > 100 µM
SK-MEL-28 melanoma
  TGI: > 100 µM
SK-MEL-5 melanoma
  TGI: > 100 µM
SK-OV-3 ovarian
  TGI: > 100 µM
SN12C renal
  TGI: > 100 µM
SNB-19 CNS
  TGI: > 100 µM
SNB-75 CNS
  TGI: > 100 µM
SNB-78 CNS
  TGI: > 100 µM
SR leukemia
  TGI: 40.3 µM
SW-620 colon
  TGI: > 32.1 µM
TK-10 renal
  TGI: > 100 µM
U251 CNS
  TGI: > 67.3 µM
UACC-257 melanoma
  TGI: > 100 µM
UACC-62 melanoma
  TGI: > 100 µM
UO-31 renal
  TGI: > 100 µM
